From PubChem BioAssay (NCI) come the findings set out here.

Some test systems named below: EKVX NSCLC; K-562 leukemia; HCT-15 colon; SW-620 colon; RXF 393 renal; NCI-H460 lung; MOLT-4 leukemia; LOX IMVI melanoma; DU-145 prostate.
What all share (test): NCI anticancer screen, dose series, 48 h

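A five-concentration, 48-hour dose response in 96-well plates underlies each endpoint, interpolated linearly between surrounding concentrations. GI50 is the concentration that inhibits growth by half. TGI is the concentration that stops growth completely.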 A value given as a limit tells only on which side of the number the result lay.

Take `Cc1cc2c(C)[nH]nc2c(C(=O)O)c1C`: the TGI in the assay on EKVX NSCLC, in the assay on K-562 leukemia, with HCT-15 colon, in the assay with SW-620 colon, in the assay on RXF 393 renal and with NCI-H460 lung was greater than 100 µM throughout. Also, the TGI in the assay on MOLT-4 leukemia was greater than 100 µM.

For the compound `N[C@@H]1CCCC[C@@H]1N.O=P([O-])([O-])CN(CCN(CP(=O)([O-])[O-])CP(=O)([O-])[O-])CP(=O)([O-])[O-].[Pt+2]`, the GI50 in the assay on EKVX NSCLC, in the assay with K-562 leukemia, in the assay with HCT-15 colon, in the assay on SW-620 colon, with RXF 393 renal and with NCI-H460 lung was greater than 25 µM each time. In addition, the GI50 in the assay on MOLT-4 leukemia and in the assay on LOX IMVI melanoma was greater than 25 µM in each case. In addition, the TGI with EKVX NSCLC, in the assay with K-562 leukemia, in the assay with HCT-15 colon, in the assay with SW-620 colon, with RXF 393 renal and in the assay with NCI-H460 lung was greater than 25 µM each time. The TGI in the assay on MOLT-4 leukemia and with LOX IMVI melanoma was greater than 25 µM in each case.

With `Cc1ccc(Oc2ccc(C)cc2N)cc1`, the TGI in the assay on EKVX NSCLC, with K-562 leukemia, in the assay on HCT-15 colon, with SW-620 colon, in the assay with RXF 393 renal and in the assay with NCI-H460 lung was greater than 100 µM in each case. Further, the TGI in the assay with MOLT-4 leukemia and in the assay on LOX IMVI melanoma was greater than 100 µM each time.

For `CC(C)(C)c1cc2ccc(C(N)=O)cc2c(=O)[nH]1`, the TGI in the assay on EKVX NSCLC, in the assay with K-562 leukemia, in the assay with HCT-15 colon, in the assay on SW-620 colon, in the assay with RXF 393 renal and in the assay on NCI-H460 lung was greater than 100 µM in each case. Besides, the TGI in the assay with MOLT-4 leukemia and in the assay on LOX IMVI melanoma was greater than 100 µM in each case.

On to `COC(=O)CC(c1ccccc1)C1(c2ccccc2)SCCS1` (centres undefined), for which the TGI in the assay on EKVX NSCLC, in the assay with K-562 leukemia, with HCT-15 colon, with SW-620 colon, in the assay with RXF 393 renal and in the assay on NCI-H460 lung was greater than 290 µM each time. Besides, the TGI in the assay with MOLT-4 leukemia and with LOX IMVI melanoma was greater than 290 µM each time.

Turning to `O=C1C=CC(=O)c2nc3c(cc21)CCC3`, the TGI is 39.3 µM with K-562 leukemia; 31.1 µM in the assay with SW-620 colon; 34.2 µM in the assay with RXF 393 renal; greater than 100 µM in the assay on NCI-H460 lung; 33.7 µM in the assay on MOLT-4 leukemia; 29.9 µM in the assay with LOX IMVI melanoma.

In the case of `COc1ccc(C)cc1-c1cc(Sc2ccccc2)c(-c2cc(C)ccc2OC)o1`, the TGI in the assay on EKVX NSCLC, in the assay with K-562 leukemia, in the assay with HCT-15 colon, in the assay with SW-620 colon, in the assay with NCI-H460 lung and in the assay on MOLT-4 leukemia was greater than 31.6 µM each time. The TGI in the assay with LOX IMVI melanoma is greater than 100 µM.

On to `O=S(=O)(N/N=C/c1cccc(/C=N/NS(=O)(=O)c2ccccc2)c1)c1ccccc1`, for which the TGI in the assay on EKVX NSCLC, in the assay with K-562 leukemia, in the assay with HCT-15 colon, with RXF 393 renal, with NCI-H460 lung and with MOLT-4 leukemia was greater than 100 µM each time. In the assay with LOX IMVI melanoma, this compound showed a TGI greater than 100 µM.

As for `CC(=O)NNc1nc(C)c(C(=O)/C=C/c2ccc(NC(C)=O)cc2)s1`, the TGI in the assay with EKVX NSCLC, in the assay with K-562 leukemia, with HCT-15 colon, with SW-620 colon, in the assay on RXF 393 renal and with NCI-H460 lung was greater than 100 µM each time. In addition, the TGI with MOLT-4 leukemia and in the assay on LOX IMVI melanoma was greater than 100 µM each time.

`C/C(CCn1[nH]c(=O)ccc1=O)=N\NC(=O)C(=O)NN`: the TGI in the assay on EKVX NSCLC, in the assay on K-562 leukemia, with HCT-15 colon, in the assay with SW-620 colon, in the assay with RXF 393 renal and in the assay with NCI-H460 lung was greater than 100 µM throughout. The TGI in the assay on MOLT-4 leukemia and with LOX IMVI melanoma was greater than 100 µM each time.

Regarding `CCCCCC[C@@H]1CCC2C(CO)[C@@H](O)CC[C@@H]2C1` (some centres undefined), the TGI was 32.7 µM in the assay on EKVX NSCLC; greater than 100 µM in the assay on K-562 leukemia; 33.4 µM with HCT-15 colon; 39.2 µM in the assay on SW-620 colon; 30.4 µM in the assay with NCI-H460 lung; 57 µM with MOLT-4 leukemia. In addition, in the assay with LOX IMVI melanoma, the TGI stood at 34.6 µM.

`c1ccc(NCn2cnc3ccccc32)cc1`: the TGI in the assay with EKVX NSCLC, with K-562 leukemia, in the assay with HCT-15 colon, in the assay on SW-620 colon, with RXF 393 renal and in the assay with NCI-H460 lung was greater than 100 µM each time. Also, the TGI with MOLT-4 leukemia and in the assay with LOX IMVI melanoma was greater than 100 µM each time.

Turning to `CCCOc1cc2ccccc2cc1C(=O)Nc1nc(N)c2c(ccc3nccc32)[nH]1`, the GI50 with EKVX NSCLC is 0.398 µM; in the assay with K-562 leukemia it was 0.0339 µM; with HCT-15 colon it was 0.0444 µM; with DU-145 prostate, 0.0487 µM; with SW-620 colon, 0.0377 µM; in the assay with RXF 393 renal, 0.0426 µM. Further, the GI50 with NCI-H460 lung was 0.0417 µM; in the assay with LOX IMVI melanoma, 0.0511 µM. Also, the TGI was determined as 2.25 µM with EKVX NSCLC; 1.26 µM with K-562 leukemia; 1.31 µM in the assay with HCT-15 colon; 1.45 µM in the assay with DU-145 prostate; 1.8 µM in the assay on SW-620 colon; 1.16 µM in the assay on RXF 393 renal. In addition, the TGI with NCI-H460 lung was determined as 1.31 µM; with LOX IMVI melanoma, 2.02 µM.

As for `CC(C)(C)c1cc2c(O)c3cccc4c(=O)c5cccc6c5-c(c34)c2c(c1)c6=O`, the TGI in the assay on EKVX NSCLC is greater than 100 µM; in the assay on K-562 leukemia, greater than 100 µM; in the assay on HCT-15 colon it was greater than 100 µM; in the assay on SW-620 colon, greater than 100 µM; in the assay with RXF 393 renal, 97.8 µM; in the assay with NCI-H460 lung it was greater than 100 µM. The TGI in the assay on MOLT-4 leukemia and with LOX IMVI melanoma was greater than 100 µM in each case.

Consider `NC(=O)c1ccccc1NC(=O)C(=O)C(C(=O)c1ccc(Cl)c(Cl)c1)C1OC(=O)c2ccccc21` (centres undefined), for which the TGI in the assay with EKVX NSCLC is greater than 100 µM; in the assay with K-562 leukemia, greater than 100 µM; with HCT-15 colon, greater than 100 µM; in the assay with SW-620 colon it was greater than 100 µM; in the assay with RXF 393 renal, 45.7 µM; in the assay with MOLT-4 leukemia it was greater than 100 µM.

Take `Cc1cccc(C)c1NC(=O)CCCC(=O)C1/C(=N/NC(=O)CC#N)CCC/C1=N\NC(=O)CC#N` (centres undefined): the TGI with EKVX NSCLC, in the assay with K-562 leukemia, in the assay with HCT-15 colon, in the assay with SW-620 colon, in the assay with NCI-H460 lung and with MOLT-4 leukemia was greater than 100 µM in each case.
